Measured values taken from article PMC6337391 (Molecules, 2019).

Molecular target: T1, Aβ40 (Homo sapiens, UniProt P05067)
T1 construct: Amyloid peptide Aβ40 was purchased from AnaSpec Co; purchased AnaSpec Co. (Fremont, CA, USA)
Test: Circular dichroism study of Aβ40 aggregation
Conditions: 50 µM compound, 50 µM Aβ40 (1:1), PB pH 7.33, 33 °C, 40 days
Description: The pathogenesis of Alzheimer’s disease (AD) is widely associated with the aggregation of β-amyloid peptide (Aβ) either to soluble oligomers or to higher-order polymeric insoluble fibrils. As a result, one of the main therapeutic strategies against AD targets the aggregation process of Aβ, and a great number of small molecules are being investigated for their potential to intervene in the assembly of Aβ and inhibit its neurotoxicity in vitro and in vivo [64]. Circular dichroism (CD) spectroscopy is commonly used to probe the secondary structure of polypeptides and to monitor conformational changes and interactions of polypeptides with small molecules. The typical aggregation process of Aβ produces characteristic CD spectra over time that reflect the conformational changes that occur as the random coil monomers are converted into β-sheet oligomers, and then gradually to larger β-sheet formations that finally produce amyloid fibrils. CD is, therefore, a valuable tool to monitor the aggregation process of Aβ and to study the effect of potential aggregation inhibitors. To further investigate the pleiotropic effects of chalcones against AD, selected compounds from our library, were subjected to CD studies in order to evaluate their potential to interfere with the aggregation process of Aβ40. […] The aggregation spectra of plain Aβ40 show at day 0 the typical random coil peak (negative maximum at 198 nm) the intensity of which gradually decreases as the peptide forms β–sheet structures (negative maximum at 222 nm, day 15) that further aggregate to higher order polymeric fibrils. The precipitation of the insoluble fibrils from solution eventually results in the loss of CD signal (days 30 and 40). […] In view of the above results, chalcone derivatives bearing a three-carbon chain linker, specifically c2, c3, and c4, were subsequently studied in order to assess the effect of further derivatization and the presence of the chalcone moiety in the structure. […] Overall, our CD study identified three new structures capable of interfering with the aggregation process of Aβ, out of which compounds c2 and c4 display additional protective actions against AD and add to the pleiotropic profile of the chalcone derivatives.
Preparation of Aβ stocks and solutions. Amyloid peptide Aβ40 was purchased from AnaSpec Co. (Fremont, CA, USA) (>95% pure). Aβ40 was gently dissolved without vortexing in Type 1 (Milli-Q) water to a final concentration of 100 μM. Solutions of Aβ in phosphate buffer (PB, 10 mM, pH 7.33) were prepared by adding equal volumes of PB to aliquots of the aqueous solution stock to achieve final concentration of 50 µM. The proper amount of the compounds c2, c3, c4, di, dii, and dvi were added to the Aβ solutions to achieve concentration of 50 μM. The secondary structural changes of Aβ were monitored for 40 days by CD. During this period, the amyloid peptide solutions were kept at an incubator at 33 °C under quiescent conditions.
Circular dichroism measurements. CD spectra were recorded on a JASCO J-715 spectropolarimeter (Jasco Co., Tokyo, Japan), at 33 °C in the range of 190–260 nm with a 1 mm path length quartz cuvette. Each spectrum was the average of three scans at a speed of 100 nm·min^−1 and a resolution of 0.5 nm. Three independent experiments were run for each condition and in each case solutions of plain Aβ were run as control (Figure 8). The analysis of the CD data was performed using the OriginPro 9 program.

T1 sequence (P05067 672-711 limits assumed): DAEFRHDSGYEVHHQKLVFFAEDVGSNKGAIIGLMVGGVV

SMILES | effect on the aggregation process of Aβ40 (CD spectra)
CC(=O)c1ccc(OCCOc2ccc(C(C)=O)cc2)cc1 [di, 1,1′-((ethane-1,2-diylbis(oxy))bis(4,1-phenylene))diethanone] | did not significantly change the fibrillization course of Aβ40
CC(=O)c1ccc(OCCCCCCCOc2ccc(C(C)=O)cc2)cc1 [dvi, 1,1′-((heptane-1,7-diylbis(oxy))bis-(4,1-phenylene)) diethanone] | did not significantly change the fibrillization course of Aβ40
